{
  "source": "patent US20130183239A1",
  "about": "“ISOTOPIC CARBON CHOLINE ANALOGS” (IMPERIAL COLLEGE, priority 2010, published 2013)",
  "parameters_in_all_cases": "AUC: unit not given beside the values",
  "key": {"HCT116 tumors": {"system": "HCT116 tumors", "protocol": "(§1) Dynamic ^11C-choline, ^11C-D4-choline and ^18F-D4-choline imaging scans were carried out on a dedicated small animal PET scanner (Siemens Inveon PET module, Siemens Medical Solutions USA, Inc., Malvem, Pa., USA) following a bolus i.v. injection in tumor-bearing mice of either ˜3.7 MBq for ^18F studies, or ˜18.5 MBq for ^11C. Dynamic scans were acquired in list mode format over 60 min. The acquired data were then sorted into 0.5 mm sinogram bins and 19 time frames for image reconstruction (4×15 s, 4×60 s, and 11×300 s), which was done by filtered back projection. For input function analysis, data were sorted into 25 time frames for image reconstruction (8×5 s, 1×20 s, 4×40 s, 1×80 s, and 11×300 s). The Siemens Inveon Research Workplace software was used for visualization of radiotracer uptake in the tumor; 30 to 60 min cumulative images of the dynamic data were employed to define 3-dimensional (3D) regions of interest (ROIs). Arterial input function was estimated as follows: a single voxel 3D ROI was manually drawn in the center of the heart cavity using 2 to 5 min cumulative images. Care was taken to minimize ROI overlap with the myocardium. The count densities were averaged for all ROIs at each time point to obtain a time versus radioactivity curve (TAC). Tumor TACs were normalized to injected dose, measured by a VDC-304 dose calibrator (Veenstra Instruments, Joure, The Netherlands), and expressed as percentage injected dose per mL tissue. The area under the TAC, calculated as the integral of % ID/mL from 0-60 min, and the normalized uptake of radiotracer at 60 min (% ID/mL60) were also used for comparisons.\n(§2) A 2-tissue irreversible compartmental model was employed to fit the TACs, as has been previously established for ^11C-choline (Kenny L M, Contractor K B, Hinz R, et al. Reproducibility of [11C]choline-positron emission tomography and effect of trastuzumab. Clin Cancer Res. Aug. 15 2010; 16(16):4236-4245; and Sutinen E, Nurmi M, Roivainen A, et al. Kinetics of [(11)C]choline uptake in prostate cancer: a PET study. Eur J Nucl Med Mol. Imaging. March 2004; 31(3):317-324). An estimate of the whole blood TAC (wbTAC(t)) was derived from the PET image itself, as described above. […] Therefore it was fitted with a sum of 3 exponentials from the peak on and the fitted function was used as input function in the kinetic modeling (after metabolite correction, see below). […] The pf values were fitted to a sum of two exponentials with the constraint pf(t=0)=1 to obtain the function pf(t). The parent whole blood TAC wbTACPAR(t) was then computed by multiplying wbTAC(t) and pf(t) and used as input function to estimate the parameters K1 (mL/cm^3/min), k2 (1/min), k3 (1/min) and Vb (unitless). The steady state net irreversible uptake rate constant Ki (mL/cm^3/min) was calculated from the estimated microparameters as K1k3/(k2+k3)."}, "[1]": {"system": "malignant melanoma A375 tumors", "protocol": "as §1, §2"}, "[2]": {"system": "prostate adenocarcinoma PC3-M tumors", "protocol": "as §1\nFor PET imaging, tumors were grown to 100 mm^3 prior to imaging.\nas §2"}, "[3]": {"conditions": "HCT116 tumors, two-tissue irreversible model, n=3"}, "[4]": {"conditions": "HCT116 tumors, 2-tissue irreversible model"}, "[5]": {"conditions": "A375 tumors, 2-tissue irreversible model"}, "[6]": {"conditions": "PC3-M tumors, 2-tissue irreversible model"}},
  "data": [
    {"smiles": "[2H]C([2H])(O)C([2H])([2H])[N+](C)(C)C[18F]", "note": "[[^18F]D4-FCH, [^18F]fluoromethyl-[1,2-^2H4]-choline]", "values": [
      {"measurement": "tumor tracer kinetics between 30 and 60 min", "setting": "HCT116 tumors; HCT116 tumors, dynamic PET", "result": "Slow wash-out of activity"},
      {"measurement": "decrease in Ki compared to 11C-D4-choline", "setting": "HCT116 tumors; [3]", "result": 49.2, "unit": "%"},
      {"measurement": "decrease in k3 compared to 11C-D4-choline", "setting": "HCT116 tumors; [3]", "result": 75.2, "unit": "%"},
      {"measurement": "K1′", "setting": "HCT116 tumors; [4]", "result": "0.142 ± 0.027"},
      {"measurement": "Ki", "setting": "HCT116 tumors; [4]", "result": "0.008 ± 0.001", "unit": "mL/cm^3/min"},
      {"measurement": "k3", "setting": "HCT116 tumors; [4]", "result": "0.039 ± 0.003", "unit": "min⁻¹"},
      {"measurement": "AUC", "setting": "HCT116 tumors; mouse, in vivo", "result": "114.5 ± 7.0"},
      {"measurement": "NUV60", "setting": "HCT116 tumors; mouse, in vivo", "result": "1.81 ± 0.11", "unit": "% ID/mL"},
      {"measurement": "tumor radiotracer uptake by PET", "setting": "HCT116 tumors; mouse, in vivo", "result": "no higher"},
      {"measurement": "K1′", "setting": "[1]; [5]", "result": "0.111 ± 0.021"},
      {"measurement": "Ki", "setting": "[1]; [5]", "result": "0.006 ± 0.002", "unit": "mL/cm^3/min"},
      {"measurement": "k3", "setting": "[1]; [5]", "result": "0.030 ± 0.008", "unit": "min⁻¹"},
      {"measurement": "AUC", "setting": "[1]; mouse, in vivo", "result": "107.3 ± 7.7"},
      {"measurement": "NUV60", "setting": "[1]; mouse, in vivo", "result": "1.71 ± 0.14", "unit": "% ID/mL"},
      {"measurement": "K1′", "setting": "[2]; [6]", "result": "0.090 ± 0.007"},
      {"measurement": "Ki", "setting": "[2]; [6]", "result": "0.009 ± 0.002", "unit": "mL/cm^3/min"},
      {"measurement": "k3", "setting": "[2]; [6]", "result": "0.040 ± 0.006", "unit": "min⁻¹"},
      {"measurement": "AUC", "setting": "[2]; mouse, in vivo", "result": "121.3 ± 3.1"},
      {"measurement": "NUV60", "setting": "[2]; mouse, in vivo", "result": "1.97 ± 0.07", "unit": "% ID/mL"},
      {"measurement": "increase in % ID/mLmax, smaller versus larger tumors", "setting": "[2]; mouse, in vivo", "result": 1.4, "unit": "fold"},
      {"measurement": "increase in normalized uptake at 60 min, smaller versus larger tumors", "setting": "[2]; mouse, in vivo", "result": 2.4, "unit": "fold"},
      {"measurement": "time to maximal tumor-specific radioactivity", "setting": "[2]; mouse, in vivo", "result": "≤ 5", "unit": "min"}
    ]}
  ]
}
